Assay: excess molar enthalpy (molar enthalpy of mixing); xn = mol fraction of the nth substance listed
Conditions: 298.15 K, 101.33 kPa, Liquid

CCCCCCCCCCCCC#N [dodecanecarbonitrile] + CSCS(C)=O
Conditions	excess molar enthalpy [kJ/mol]
x2 = 0.06513	0.323
x2 = 0.0823	0.433
x2 = 0.1316	0.629
x2 = 0.2014	0.873
x2 = 0.265	1.04
x2 = 0.3508	1.18
x2 = 0.367	1.21
x2 = 0.4233	1.26
x2 = 0.5443	1.28
x2 = 0.6344	1.23
x2 = 0.7341	1.11
x2 = 0.7878	0.992
x2 = 0.8039	0.948
x2 = 0.9082	0.578
x2 = 0.9683	0.246
x2 = 0.9847	0.123

CCCCCCCCC#N [nonanenitrile] + CSCS(C)=O
Conditions	excess molar enthalpy [kJ/mol]
x2 = 0.01839	0.0833
x2 = 0.03954	0.172
x2 = 0.08357	0.335
x2 = 0.1186	0.454
x2 = 0.175	0.624
x2 = 0.2257	0.744
x2 = 0.2686	0.831
x2 = 0.3721	0.97
x2 = 0.3812	0.981
x2 = 0.4654	1.04
x2 = 0.5564	1.06
x2 = 0.6409	1.01
x2 = 0.779	0.815
x2 = 0.8417	0.65
x2 = 0.8806	0.528
x2 = 0.9058	0.442
x2 = 0.9564	0.222
x2 = 0.9784	0.111

CCCCCCCCCC#N [1-decanenitrile] + CSCS(C)=O
Conditions	excess molar enthalpy [kJ/mol]
x2 = 0.02311	0.0954
x2 = 0.02808	0.121
x2 = 0.05736	0.249
x2 = 0.07887	0.338
x2 = 0.1059	0.451
x2 = 0.1267	0.535
x2 = 0.1515	0.622
x2 = 0.186	0.736
x2 = 0.2278	0.851
x2 = 0.2893	0.971
x2 = 0.3382	1.05
x2 = 0.3657	1.08
x2 = 0.4935	1.14
x2 = 0.5572	1.13
x2 = 0.6575	1.05
x2 = 0.7014	0.999
x2 = 0.7482	0.919
x2 = 0.7873	0.839
x2 = 0.8609	0.659
x2 = 0.9468	0.305
x2 = 0.976	0.147
x2 = 0.988	0.0806

CCCCCCCC#N [octanenitrile] + CSCS(C)=O
Conditions	excess molar enthalpy [kJ/mol]
x2 = 0.02232	0.0869
x2 = 0.06732	0.268
x2 = 0.1083	0.405
x2 = 0.16	0.558
x2 = 0.2232	0.709
x2 = 0.3476	0.906
x2 = 0.5207	0.992
x2 = 0.6218	0.952
x2 = 0.7086	0.862
x2 = 0.7769	0.742
x2 = 0.869	0.509
x2 = 0.9129	0.367
x2 = 0.9266	0.324
x2 = 0.9548	0.208
x2 = 0.9879	0.0646

CCCCCCCCCC#N [1-decanenitrile] + C[S+](C)[O-]
Conditions	excess molar enthalpy [kJ/mol]
x2 = 0.03778	0.142
x2 = 0.04533	0.175
x2 = 0.07244	0.27
x2 = 0.08356	0.312
x2 = 0.1458	0.553
x2 = 0.1516	0.572
x2 = 0.1578	0.592
x2 = 0.2138	0.767
x2 = 0.232	0.816
x2 = 0.3492	1.07
x2 = 0.4404	1.19
x2 = 0.52	1.25
x2 = 0.5471	1.26
x2 = 0.5564	1.27
x2 = 0.6253	1.26
x2 = 0.7275	1.18
x2 = 0.7979	1.05
x2 = 0.9212	0.583
x2 = 0.962	0.32
x2 = 0.9868	0.123

CCCCCCCCCCCC#N [n-dodecanenitrile] + CSCS(C)=O
Conditions	excess molar enthalpy [kJ/mol]
x2 = 0.03008	0.157
x2 = 0.03781	0.199
x2 = 0.09203	0.448
x2 = 0.1008	0.476
x2 = 0.1789	0.746
x2 = 0.207	0.826
x2 = 0.2152	0.853
x2 = 0.3197	1.09
x2 = 0.3517	1.13
x2 = 0.5024	1.26
x2 = 0.5857	1.26
x2 = 0.7084	1.16
x2 = 0.8115	0.934
x2 = 0.8979	0.619
x2 = 0.9592	0.279
x2 = 0.9865	0.0995

CCCCCCCCCCCCCC#N [tetradecanenitrile] + C[S+](C)[O-]
Conditions	excess molar enthalpy [kJ/mol]
x2 = 0.02407	0.128
x2 = 0.06045	0.281
x2 = 0.1219	0.559
x2 = 0.1415	0.642
x2 = 0.2193	0.917
x2 = 0.2527	1.02
x2 = 0.3063	1.17
x2 = 0.4181	1.35
x2 = 0.4877	1.42
x2 = 0.6186	1.44
x2 = 0.7619	1.3
x2 = 0.8716	0.96
x2 = 0.8962	0.84
x2 = 0.911	0.736
x2 = 0.9532	0.455
x2 = 0.9692	0.332
x2 = 0.9809	0.205

CCCCCC#N [hexanenitrile] + C[S+](C)[O-]
Conditions	excess molar enthalpy [kJ/mol]
x2 = 0.07452	0.228
x2 = 0.09271	0.278
x2 = 0.1474	0.419
x2 = 0.1952	0.524
x2 = 0.2583	0.645
x2 = 0.3135	0.727
x2 = 0.3528	0.773
x2 = 0.4343	0.84
x2 = 0.4908	0.865
x2 = 0.5806	0.859
x2 = 0.7154	0.759
x2 = 0.842	0.541
x2 = 0.8892	0.412
x2 = 0.9559	0.19
x2 = 0.9855	0.0623

CCCCCCC#N [heptanenitrile] + CSCS(C)=O
Conditions	excess molar enthalpy [kJ/mol]
x2 = 0.02045	0.0818
x2 = 0.05221	0.201
x2 = 0.08567	0.319
x2 = 0.09776	0.357
x2 = 0.1935	0.599
x2 = 0.2208	0.655
x2 = 0.2701	0.742
x2 = 0.3893	0.87
x2 = 0.4914	0.902
x2 = 0.579	0.885
x2 = 0.7478	0.714
x2 = 0.8609	0.466
x2 = 0.936	0.247
x2 = 0.9576	0.165
x2 = 0.9714	0.115

Source: the NIST ThermoML archive (doi:10.1021/je0499317)
